Data on ten molecules can be found in ChEMBL document CHEMBL1201862, “PubChem BioAssay data set” (2004).

Values joined by “and” are separate entries in the source; they are usually repeats but may differ in a detail not shown here. Equal entries are not always repeated.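 Each compound was tested at five concentrations against cells in 96-well plates for 48 hours. GI50 is the concentration that inhibits growth by half.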 Active and inactive are the calls of the source. Rule as the data show it: active = GI50 up to about 1.1 µM and inactive = higher.

Among the test systems are 786-0; PC-3; MCF7; IGROV-1; SF-539; SNB-19; SK-MEL-5; HCT-15; NCI-H23; SN12C; MDA-MB-231; UACC-257; Hs-578T; HOP-92; CAKI-1; BT-549; HCT-116; A549; K562.
What all share (test): NCI-60 cell line screen, 48 h

With `O=C1OC(C2(O)OC(=O)c3ccccc32)c2ccccc21` (stereo not drawn), the GI50 in the assay with 786-0, in the assay on PC-3, with MCF7, in the assay with IGROV-1, in the assay with SF-539 and with SNB-19 was > 100 µM (inactive) throughout. The GI50 in the assay on SK-MEL-5 was > 100 µM (inactive); with HCT-15, over 100 µM; in the assay on NCI-H23, > 100 µM (inactive); in the assay on SN12C, > 100 µM (inactive); with MDA-MB-231 it was > 100 µM (inactive); in the assay with UACC-257 it was > 100 µM (inactive). Besides, the GI50 in the assay on Hs-578T, with HOP-92, with CAKI-1, with BT-549, in the assay with HCT-116 and with A549 was > 100 µM (inactive) throughout.
Turning to `C=C1C(O)C23CCC4C(C(=O)O)(C(=O)O)CC(OC5OC(CO)C(O)C(OC(=O)CCc6ccccc6)C5NC(=O)CC(C)C)CC4(C)C2CCC1(O)C3` (stereo not drawn), the GI50 in the assay with 786-0, in the assay with PC-3, in the assay on IGROV-1, with SF-539, with SNB-19 and in the assay with SK-MEL-5 was > 100 µM (inactive) throughout. Moreover, the GI50 in the assay on HCT-15 is over 100 µM; in the assay with NCI-H23, > 100 µM (inactive); with SN12C, > 100 µM (inactive); in the assay with MDA-MB-231, > 100 µM (inactive); with UACC-257, > 100 µM (inactive); in the assay with Hs-578T it was > 100 µM (inactive). Also, the GI50 with HOP-92, with CAKI-1, with BT-549, with K562, in the assay on HCT-116 and in the assay on A549 was > 100 µM (inactive) each time.
Consider `Nc1ccc(Oc2ccc(C34CC5CC6C3CC3CC4C(C5)C6(c4ccc(Oc5ccc(N)cc5)cc4)C3)cc2)cc1`, for which the GI50 was 13.4 µM (inactive) in the assay on 786-0; 8.26 µM (inactive) in the assay on PC-3; 36.2 µM (inactive) in the assay on MCF7; 23.8 µM (inactive) in the assay with IGROV-1; 9.53 µM (inactive) with SNB-19; 0.561 µM (active) in the assay with SK-MEL-5. Also, the GI50 with HCT-15 is 21.8 µM; in the assay with NCI-H23, 26.4 µM (inactive); in the assay on SN12C it was 25.1 µM (inactive); in the assay with MDA-MB-231 it was 9.08 µM (inactive); in the assay on UACC-257, 0.329 µM (active); in the assay on Hs-578T, 25.4 µM (inactive). In addition, the GI50 in the assay with HOP-92 is 2.9 µM (inactive); in the assay on CAKI-1, 19 µM (inactive); in the assay on BT-549 it was 34.4 µM (inactive); with K562, 10.2 µM (inactive); with HCT-116, 8.41 µM (inactive); with A549 it was 12.6 µM (inactive).
With `CCOC(=O)[C@@H]1CCN2CN(c3ccc(OC)cc3)N=C(c3ccccc3)[C@@]12c1ccccc1`, the GI50 was 18.6 µM (inactive) in the assay on 786-0; 25.5 µM (inactive) with PC-3; 20.7 µM (inactive) with MCF7; 21.3 µM (inactive) in the assay on IGROV-1; 37 µM (inactive) in the assay on SNB-19; 13.2 µM (inactive) in the assay with SK-MEL-5. Also, the GI50 is 23.9 µM in the assay on HCT-15; 24.1 µM (inactive) in the assay on NCI-H23; 16 µM (inactive) in the assay with SN12C; 31.6 µM (inactive) in the assay with MDA-MB-231; 19.4 µM (inactive) with UACC-257; 23.4 µM (inactive) in the assay on Hs-578T. Further, the GI50 in the assay with HOP-92 is 12.6 µM (inactive); with CAKI-1, 29.6 µM (inactive); in the assay with BT-549, 21.4 µM (inactive); in the assay on K562 it was 66.8 µM (inactive); in the assay with HCT-116, 16.7 µM (inactive); in the assay on A549 it was 29.9 µM (inactive).
As for `OC(Cc1cccc2ccccc12)CN1CCC(c2ccccc2)CC1` (stereo not drawn), the GI50 with 786-0 was 15 µM (inactive); with PC-3, 14.5 µM (inactive); with MCF7 it was 17.3 µM (inactive); with SF-539, 17.3 µM (inactive); in the assay with SNB-19 it was 13 µM (inactive); with SK-MEL-5, 12.1 µM (inactive). In addition, the GI50 is 14.5 µM with HCT-15; 15.3 µM (inactive) in the assay with NCI-H23; 16.5 µM (inactive) in the assay on SN12C; 14.2 µM (inactive) in the assay with MDA-MB-231; 3.72 µM (inactive) in the assay on UACC-257; 15.8 µM (inactive) in the assay with Hs-578T. In addition, the GI50 was 12.4 µM (inactive) with HOP-92; 11.1 µM (inactive) in the assay on CAKI-1; 16.8 µM (inactive) in the assay with BT-549; 12.5 µM (inactive) in the assay on K562; 13.2 µM (inactive) in the assay on HCT-116; 15.9 µM (inactive) in the assay on A549.
Consider `CCOC(=O)N1CC2(C(=O)OC)C=CC1C(C(=O)OC)C2` (stereo not drawn), for which the GI50 in the assay on 786-0, with PC-3, in the assay with MCF7, in the assay with IGROV-1, in the assay with SF-539 and in the assay with SNB-19 was > 100 µM (inactive) in each case. The GI50 in the assay on SK-MEL-5 is > 100 µM (inactive); in the assay on HCT-15 it was over 100 µM; in the assay on NCI-H23 it was > 100 µM (inactive); with SN12C, > 100 µM (inactive); in the assay on MDA-MB-231, > 100 µM (inactive); in the assay with UACC-257, > 100 µM (inactive). In addition, the GI50 with Hs-578T, with CAKI-1, in the assay on BT-549, in the assay on K562, in the assay on HCT-116 and in the assay on A549 was > 100 µM (inactive) each time.
For the molecule `CC(c1ccccc1)n1cncc1C(=O)NN1CCN(C)CC1` (stereo not drawn), the GI50 with 786-0, in the assay with PC-3, in the assay on MCF7, in the assay with IGROV-1, with SF-539 and in the assay on SNB-19 was > 10 µM (inactive) in each case. The GI50 is > 10 µM (inactive) in the assay on SK-MEL-5; over 10 µM in the assay on HCT-15; > 10 µM (inactive) in the assay with NCI-H23; > 10 µM (inactive) in the assay on SN12C; > 10 µM (inactive) in the assay with MDA-MB-231; > 10 µM (inactive) with UACC-257. For the same molecule, the GI50 in the assay with Hs-578T, in the assay with CAKI-1, with BT-549, in the assay with K562, with HCT-116 and with A549 was > 10 µM (inactive) each time.
Take `COc1cccc2c1CCc1sc(CN3CCN(C)CC3)nc1-2`: the GI50 with 786-0 was 78.5 µM (inactive); in the assay with PC-3 it was 44.8 µM (inactive); in the assay on MCF7 it was 26.4 µM (inactive); with IGROV-1, > 100 µM (inactive); in the assay with SNB-19 it was > 100 µM (inactive); in the assay on SK-MEL-5 it was 28.1 µM (inactive). Also, the GI50 was 83.6 µM in the assay with HCT-15; 84.7 µM (inactive) in the assay on NCI-H23; > 100 µM (inactive) in the assay with SN12C; 85.7 µM (inactive) in the assay on MDA-MB-231; > 100 µM (inactive) in the assay with UACC-257; > 100 µM (inactive) in the assay with Hs-578T. The GI50 was > 100 µM (inactive) in the assay on CAKI-1; > 100 µM (inactive) with BT-549; 31.4 µM (inactive) in the assay with K562; 57.7 µM (inactive) with HCT-116; > 100 µM (inactive) in the assay on A549.
`COC1OC(COC(=O)NCCCCC(=O)C(F)(F)C(F)(F)C(F)(F)C(F)(F)C(F)(F)C(F)(F)C(F)(F)F)C(O)C(O)C1O` (stereo not drawn): the GI50 was 16.4 µM (inactive) and 16.5 µM (inactive) in the assay on 786-0; 12.9 µM (inactive) and 13.6 µM (inactive) with PC-3; 17.6 µM (inactive) and 18.4 µM (inactive) with MCF7; 16.5 µM (inactive) and 14.3 µM (inactive) in the assay on IGROV-1; 18 µM (inactive) and 15.5 µM (inactive) with SF-539; 17.8 µM (inactive) and 17.9 µM (inactive) with SNB-19. The GI50 with SK-MEL-5 is 13.1 µM (inactive) and 12 µM (inactive); in the assay on HCT-15, 18.5 µM and 19.4 µM; with NCI-H23, 14.8 µM (inactive) and 17.8 µM (inactive); in the assay with SN12C it was 19.6 µM (inactive) and 21.4 µM (inactive); in the assay with MDA-MB-231, 23.1 µM (inactive) and 23.9 µM (inactive); in the assay on UACC-257 it was 16.9 µM (inactive) and 16.6 µM (inactive). Besides, the GI50 with Hs-578T was 15.2 µM (inactive) and 17.7 µM (inactive); in the assay with CAKI-1, 16.4 µM (inactive) and 17.2 µM (inactive); in the assay on BT-549, 17.6 µM (inactive) and 17.4 µM (inactive); with K562, 10.6 µM (inactive) and 16 µM (inactive); with HCT-116 it was 15 µM (inactive) and 19 µM (inactive); in the assay with A549, 17.9 µM (inactive) and 15.6 µM (inactive).
As to `C=C1C2CCC3C4(C)CCCC(C)(C(=O)O)C4CCC3(C2)C1OC(=O)/C(C)=C/C` (stereo not drawn), the GI50 in the assay on 786-0 was 60.7 µM (inactive); in the assay on PC-3, 31.3 µM (inactive); with MCF7, 32.7 µM (inactive); in the assay with IGROV-1 it was 27.1 µM (inactive); with SF-539, 27.5 µM (inactive); in the assay on SK-MEL-5, 27.4 µM (inactive). Moreover, the GI50 is 22.9 µM in the assay on HCT-15; 36.8 µM (inactive) in the assay on NCI-H23; 23 µM (inactive) in the assay with SN12C; 20.9 µM (inactive) with MDA-MB-231; 39.7 µM (inactive) with UACC-257; 35.2 µM (inactive) in the assay on Hs-578T. Moreover, the GI50 in the assay on HOP-92 is 25.6 µM (inactive); in the assay with CAKI-1, 26.2 µM (inactive); in the assay on BT-549, 41.8 µM (inactive); in the assay with HCT-116, 38.5 µM (inactive); in the assay with A549, 35.9 µM (inactive).
